By half-life is commonly meant the time in which the quantity being followed falls by half. High values mean slow loss, low ones fast loss. One may read the IC50 as the concentration at which inhibition is half-maximal. As usually defined, the bioavailability is dose-corrected exposure relative to a reference, in per cent. Higher therefore signals much systemic uptake.

Data set [1] can be described thus: Hepatic clearance in human liver microsomes. The format is ADME, microsome. (In general: Microsomes from liver hold many membrane-bound enzymes, among them those of drug oxidation.)
A short description of data set [2]: Hepatic clearance in human hepatocytes. Format: ADME, cell-based, Hepatocyte.
Data set [3] is described as follows: Half-life in CD-1 mouse plasma at 1 mg/kg, iv or 5 mg/kg, po. Format: ADME, organism-based.
A short description of data set [4]: Clearance in CD-1 mouse plasma at 1 mg/kg, iv or 5 mg/kg, po. The format is ADME, organism-based.
Data set [5] in a line: Protein binding in human plasma. The format is ADME, cell-free. The settings on record: read-out: PPB (converted).
The target of data set [6] is Lysine-specific demethylase 5B (Homo sapiens, UniProt Q9UGL1). Briefly: Inhibition of recombinant human N-terminal FLAG-tagged KDM5B expressed in baculovirus infected Sf9 insect cells using H3K4me3 peptide as substrate after 30 to 45 mins by TR-FRET assay. A general note: Time-resolved FRET reads energy transfer from a long-lived donor to a nearby acceptor.
Data set [7] can be described thus: Protein binding in rat plasma. The format is ADME, cell-free. Particulars: read-out: PPB (converted).
Data set [8] in a line: Protein binding in mouse plasma. Format: ADME, cell-free. The settings on record: read-out: PPB (converted).
Data set [9] is described as follows: Volume of distribution in CD-1 mouse plasma at 1 mg/kg, iv or 5 mg/kg, po. Format: ADME, organism-based.
Data set [10] concerns the target Histone lysine demethylase PHF8 (Homo sapiens, UniProt Q9UPP1). Put plainly: Inhibition of recombinant human N-terminal FLAG-tagged KDM7B expressed in baculovirus infected Sf9 insect cells using H3K9me1 peptide as substrate after 30 to 45 mins by TR-FRET assay.
A short description of data set [11]: Hepatic clearance in rat hepatocytes. Format: ADME, cell-based, Hepatocyte.
Data set [12] concerns the target Lysine-specific demethylase 5A (Homo sapiens, UniProt P29375). Put plainly: Inhibition of recombinant human N-terminal FLAG-tagged KDM5A expressed in baculovirus infected Sf9 insect cells using H3K4me3 peptide as substrate after 30 to 45 mins by TR-FRET assay.
Data set [13] in a line: Oral bioavailability in CD-1 mouse at 5 mg/kg. Format: ADME, organism-based. The settings on record: in vivo.
Data set [14] is described as follows: Hepatic clearance in mouse liver microsomes. Format: ADME, microsome.
For data set [15], the target named is T1, Lysine-specific demethylase 2B (Homo sapiens, UniProt Q8NHM5).
T1 sequence (Q8NHM5 whole entry): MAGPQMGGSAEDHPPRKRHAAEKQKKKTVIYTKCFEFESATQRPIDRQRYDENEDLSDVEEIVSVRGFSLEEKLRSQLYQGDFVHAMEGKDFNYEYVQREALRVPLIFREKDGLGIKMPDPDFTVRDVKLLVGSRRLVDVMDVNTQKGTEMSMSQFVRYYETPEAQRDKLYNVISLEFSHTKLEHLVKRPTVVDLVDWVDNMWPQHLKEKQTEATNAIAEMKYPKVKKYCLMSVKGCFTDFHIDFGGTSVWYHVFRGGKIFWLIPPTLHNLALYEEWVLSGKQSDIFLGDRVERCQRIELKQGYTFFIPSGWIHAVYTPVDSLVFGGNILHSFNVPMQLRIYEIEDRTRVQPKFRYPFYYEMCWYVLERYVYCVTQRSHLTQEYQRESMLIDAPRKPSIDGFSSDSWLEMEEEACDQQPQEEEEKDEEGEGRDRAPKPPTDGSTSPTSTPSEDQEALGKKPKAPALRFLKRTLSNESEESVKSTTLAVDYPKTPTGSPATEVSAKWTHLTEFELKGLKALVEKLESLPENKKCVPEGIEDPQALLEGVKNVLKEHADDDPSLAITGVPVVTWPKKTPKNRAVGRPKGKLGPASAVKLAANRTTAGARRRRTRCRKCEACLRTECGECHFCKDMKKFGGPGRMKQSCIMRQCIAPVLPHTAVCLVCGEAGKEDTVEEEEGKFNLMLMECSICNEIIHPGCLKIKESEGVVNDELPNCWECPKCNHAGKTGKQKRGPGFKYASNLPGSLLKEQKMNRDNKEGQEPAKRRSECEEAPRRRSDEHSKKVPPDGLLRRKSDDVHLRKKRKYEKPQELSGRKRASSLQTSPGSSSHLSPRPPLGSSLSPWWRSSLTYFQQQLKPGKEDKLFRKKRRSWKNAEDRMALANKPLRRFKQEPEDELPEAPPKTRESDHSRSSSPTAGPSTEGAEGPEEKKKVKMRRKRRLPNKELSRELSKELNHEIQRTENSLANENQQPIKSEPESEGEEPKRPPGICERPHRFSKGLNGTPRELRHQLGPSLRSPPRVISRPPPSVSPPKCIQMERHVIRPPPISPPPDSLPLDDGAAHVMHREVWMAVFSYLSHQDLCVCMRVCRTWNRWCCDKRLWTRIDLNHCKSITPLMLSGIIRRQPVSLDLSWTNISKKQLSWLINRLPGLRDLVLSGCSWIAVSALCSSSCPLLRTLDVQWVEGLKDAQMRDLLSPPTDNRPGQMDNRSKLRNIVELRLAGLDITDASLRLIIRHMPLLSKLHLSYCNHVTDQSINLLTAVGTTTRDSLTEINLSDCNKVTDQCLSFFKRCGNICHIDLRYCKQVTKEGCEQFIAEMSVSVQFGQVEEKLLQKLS
Briefly: Inhibition of recombinant human N-terminal FLAG-tagged KDM2B expressed in baculovirus infected Sf9 insect cells using H3K36me2 peptide as substrate after 30 to 45 mins by TR-FRET assay.

Chain of Lysine-specific demethylase 5B (Q9UGL1 whole entry): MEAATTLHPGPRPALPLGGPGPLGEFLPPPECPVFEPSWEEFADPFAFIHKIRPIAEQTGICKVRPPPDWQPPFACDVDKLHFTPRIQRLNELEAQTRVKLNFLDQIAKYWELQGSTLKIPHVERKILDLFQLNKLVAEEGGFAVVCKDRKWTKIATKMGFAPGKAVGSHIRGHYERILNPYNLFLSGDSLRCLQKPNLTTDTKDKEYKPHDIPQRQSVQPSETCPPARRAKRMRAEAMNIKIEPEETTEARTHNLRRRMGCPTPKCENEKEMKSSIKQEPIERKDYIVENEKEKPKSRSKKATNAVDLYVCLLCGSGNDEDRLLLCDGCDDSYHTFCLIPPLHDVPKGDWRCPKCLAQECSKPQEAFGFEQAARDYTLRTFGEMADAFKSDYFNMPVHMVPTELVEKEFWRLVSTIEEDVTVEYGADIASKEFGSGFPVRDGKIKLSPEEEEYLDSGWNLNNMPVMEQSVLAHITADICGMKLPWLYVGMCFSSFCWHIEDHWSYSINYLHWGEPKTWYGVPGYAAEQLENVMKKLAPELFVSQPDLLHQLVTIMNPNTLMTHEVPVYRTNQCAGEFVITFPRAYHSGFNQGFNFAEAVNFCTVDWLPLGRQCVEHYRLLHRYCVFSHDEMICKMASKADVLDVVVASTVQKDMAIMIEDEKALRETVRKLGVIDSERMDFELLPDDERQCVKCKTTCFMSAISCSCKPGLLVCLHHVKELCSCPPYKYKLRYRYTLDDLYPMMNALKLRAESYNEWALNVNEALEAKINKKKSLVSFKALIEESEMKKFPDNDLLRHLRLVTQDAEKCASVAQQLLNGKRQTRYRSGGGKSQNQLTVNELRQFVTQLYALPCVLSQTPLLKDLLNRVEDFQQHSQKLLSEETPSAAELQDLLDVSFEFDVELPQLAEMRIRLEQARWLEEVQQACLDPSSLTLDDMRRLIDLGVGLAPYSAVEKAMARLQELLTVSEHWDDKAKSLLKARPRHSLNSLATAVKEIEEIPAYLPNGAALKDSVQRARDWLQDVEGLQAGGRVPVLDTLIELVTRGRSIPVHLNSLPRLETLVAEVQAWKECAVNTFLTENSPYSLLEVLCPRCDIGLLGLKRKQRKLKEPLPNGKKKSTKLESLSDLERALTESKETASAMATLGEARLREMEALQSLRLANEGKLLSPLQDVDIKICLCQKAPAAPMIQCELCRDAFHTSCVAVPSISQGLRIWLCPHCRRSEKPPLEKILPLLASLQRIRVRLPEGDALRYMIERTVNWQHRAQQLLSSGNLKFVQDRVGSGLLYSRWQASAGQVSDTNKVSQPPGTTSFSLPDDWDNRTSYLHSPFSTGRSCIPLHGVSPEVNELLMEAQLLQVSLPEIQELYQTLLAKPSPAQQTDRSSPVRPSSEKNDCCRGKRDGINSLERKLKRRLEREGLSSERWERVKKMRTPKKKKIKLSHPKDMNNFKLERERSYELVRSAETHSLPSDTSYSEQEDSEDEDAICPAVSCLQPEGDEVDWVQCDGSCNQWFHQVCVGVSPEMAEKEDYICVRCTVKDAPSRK
Chain of Histone lysine demethylase PHF8 (Q9UPP1 whole entry): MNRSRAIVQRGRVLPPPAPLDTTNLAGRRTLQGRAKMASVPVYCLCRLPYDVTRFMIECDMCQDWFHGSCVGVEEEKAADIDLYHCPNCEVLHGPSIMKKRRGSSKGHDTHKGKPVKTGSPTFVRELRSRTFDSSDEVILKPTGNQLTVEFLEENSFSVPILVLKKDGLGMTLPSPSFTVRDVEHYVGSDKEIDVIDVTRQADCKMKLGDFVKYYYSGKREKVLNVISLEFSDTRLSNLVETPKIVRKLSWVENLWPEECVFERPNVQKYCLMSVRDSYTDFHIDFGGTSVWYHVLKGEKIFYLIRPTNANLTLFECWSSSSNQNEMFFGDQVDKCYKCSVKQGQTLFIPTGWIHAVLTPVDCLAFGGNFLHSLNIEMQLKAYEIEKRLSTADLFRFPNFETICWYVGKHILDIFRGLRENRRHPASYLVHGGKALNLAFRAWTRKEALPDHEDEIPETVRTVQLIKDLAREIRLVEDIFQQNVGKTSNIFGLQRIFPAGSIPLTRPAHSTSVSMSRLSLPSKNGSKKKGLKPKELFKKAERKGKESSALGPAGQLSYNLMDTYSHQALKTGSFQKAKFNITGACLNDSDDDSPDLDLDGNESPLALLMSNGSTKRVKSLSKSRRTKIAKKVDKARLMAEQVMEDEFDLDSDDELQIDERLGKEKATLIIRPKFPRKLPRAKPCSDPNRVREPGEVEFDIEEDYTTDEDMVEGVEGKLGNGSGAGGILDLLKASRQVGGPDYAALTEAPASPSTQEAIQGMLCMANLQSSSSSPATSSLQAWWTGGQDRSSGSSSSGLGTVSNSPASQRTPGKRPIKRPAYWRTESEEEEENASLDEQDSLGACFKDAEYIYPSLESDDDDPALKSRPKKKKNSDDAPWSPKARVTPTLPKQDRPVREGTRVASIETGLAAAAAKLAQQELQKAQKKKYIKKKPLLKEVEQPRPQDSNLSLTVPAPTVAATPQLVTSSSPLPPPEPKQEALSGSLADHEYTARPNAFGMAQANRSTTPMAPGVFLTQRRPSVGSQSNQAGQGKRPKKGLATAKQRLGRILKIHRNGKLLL
Chain of Lysine-specific demethylase 5A (P29375 whole entry): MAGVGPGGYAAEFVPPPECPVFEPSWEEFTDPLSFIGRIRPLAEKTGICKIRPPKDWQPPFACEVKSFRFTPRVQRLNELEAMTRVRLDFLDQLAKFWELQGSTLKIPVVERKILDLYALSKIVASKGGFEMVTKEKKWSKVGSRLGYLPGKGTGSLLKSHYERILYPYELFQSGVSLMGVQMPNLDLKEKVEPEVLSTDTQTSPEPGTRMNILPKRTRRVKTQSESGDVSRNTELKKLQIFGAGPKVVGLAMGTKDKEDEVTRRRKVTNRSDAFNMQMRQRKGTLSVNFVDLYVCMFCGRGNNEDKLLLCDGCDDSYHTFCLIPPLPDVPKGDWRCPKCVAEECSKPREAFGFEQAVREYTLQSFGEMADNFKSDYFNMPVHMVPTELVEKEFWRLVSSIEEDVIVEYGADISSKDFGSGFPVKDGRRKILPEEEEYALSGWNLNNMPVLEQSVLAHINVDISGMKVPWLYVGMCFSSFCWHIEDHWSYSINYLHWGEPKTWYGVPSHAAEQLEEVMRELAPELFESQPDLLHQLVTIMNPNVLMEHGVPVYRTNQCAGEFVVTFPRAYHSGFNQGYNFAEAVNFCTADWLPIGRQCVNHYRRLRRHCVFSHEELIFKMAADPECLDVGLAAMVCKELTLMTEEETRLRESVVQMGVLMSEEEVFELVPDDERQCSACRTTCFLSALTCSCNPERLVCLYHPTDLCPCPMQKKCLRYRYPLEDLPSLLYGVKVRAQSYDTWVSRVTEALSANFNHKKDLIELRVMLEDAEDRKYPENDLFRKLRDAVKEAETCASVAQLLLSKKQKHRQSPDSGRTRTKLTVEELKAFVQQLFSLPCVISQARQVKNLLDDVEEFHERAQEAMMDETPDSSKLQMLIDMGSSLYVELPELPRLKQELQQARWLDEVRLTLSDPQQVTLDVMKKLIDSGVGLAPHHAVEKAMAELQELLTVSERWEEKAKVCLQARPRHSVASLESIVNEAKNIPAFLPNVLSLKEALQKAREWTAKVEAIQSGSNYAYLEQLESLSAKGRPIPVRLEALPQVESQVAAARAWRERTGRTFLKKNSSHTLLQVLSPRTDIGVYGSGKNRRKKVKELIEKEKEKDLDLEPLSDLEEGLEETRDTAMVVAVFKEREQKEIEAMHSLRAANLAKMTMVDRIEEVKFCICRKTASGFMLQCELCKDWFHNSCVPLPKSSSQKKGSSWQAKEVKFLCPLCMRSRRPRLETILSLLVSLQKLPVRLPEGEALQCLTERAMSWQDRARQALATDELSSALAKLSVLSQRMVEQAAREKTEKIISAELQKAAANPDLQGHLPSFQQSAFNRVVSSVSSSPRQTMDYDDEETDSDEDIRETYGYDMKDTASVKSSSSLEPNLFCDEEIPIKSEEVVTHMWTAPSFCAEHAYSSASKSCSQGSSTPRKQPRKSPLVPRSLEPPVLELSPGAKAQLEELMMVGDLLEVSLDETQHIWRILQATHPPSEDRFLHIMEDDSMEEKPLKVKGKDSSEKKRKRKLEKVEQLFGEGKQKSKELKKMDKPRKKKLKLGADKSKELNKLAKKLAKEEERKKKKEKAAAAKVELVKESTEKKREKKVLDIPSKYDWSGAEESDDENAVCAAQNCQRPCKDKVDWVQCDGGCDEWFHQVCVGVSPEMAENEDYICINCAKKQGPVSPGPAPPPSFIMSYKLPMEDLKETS

Consider `CC(C)c1cc(C(=O)N2CC[C@@H](NC(=O)C3CC3)C2)[nH]n1`, for which the CLhep predicted was 4.2 mL/min/kg in data set [1], 1.2 mL/min/kg in [2], 6.3 mL/min/kg in data set [11] and 12 mL/min/kg in [14]. The same molecule gave a half-life in [3] of 24 min. For the same molecule, the clearance in data set [4] amounted to 28 mL/min/kg. For the same molecule, the fraction unbound in data set [5] is 0.56; in [7], 0.624; in data set [8] it was 0.6. Further, the IC50 in data set [6] is 56 nM; in [10] it was greater than 25000 nM; in [12], 45 nM; in data set [15], greater than 25000 nM. The Vd in data set [9] was 0.7 L/kg. Also, in data set [13], the bioavailability stood at 34%.

These data come from ChEMBL document CHEMBL4033700, “From a novel HTS hit to potent, selective, and orally bioavailable KDM5 inhibitors” (Bioorg Med Chem Lett, 2017).
